In patent US12677850B2, “Stevia blends containing rebaudioside B” (Tate & Lyle Solutions USA LLC, priority 2011, dated 2026):

Experiments:
[1] = previous reports; cited from earlier work
[2] = assay type: physicochemical; settings: pH 3
Experimental: To determine the solubility of rebaudioside A and rebaudioside B in certain solutions, four stock solutions were prepared. A 10× concentrated citric acid/sodium citrate pH 3 stock buffer solution was prepared by dissolving 0.9 g anhydrous citric acid and 0.26 g of sodium citrate dihydrate in water to make 100 mL of buffer (0.047 M citric acid+0.0088 M sodium citrate). A 2500 ppm (nominal) solution of rebaudioside A was prepared by dissolving 0.125 g of GLG RA 97 to make 50 mL of solution. A 2500 ppm (nominal) solution of stevioside was prepared by dissolving 0.125 g of GLG STV 97 to make 50 mL of solution. A 1000 ppm (nominal) solution of rebaudioside B was prepared by diluting 56 mL of a solution assayed at 1790 ppm to make 100 mL of solution.
These solutions were mixed as 1 mL total amounts by micropipetting the volumes, in microliters, into 1.5 mL microcentrifuge tubes As shown in Table 14.
After standing for […] (~100 hours), the tubes were spun in a bench top microcentrifuge to pelletize the precipitate. The clear supernate was sampled into vials and assayed for glycosides using a reverse phase high performance liquid chromatograph (HPLC) gradient method with UV detection (Waters 2695 Separations Module equipped with a Waters 2487 Dual X Absorbance Detector or equivalent instrumentation) that is summarized in Table 15. The HPLC conditions were as follows:
The supernatant data collected from the HPLC were processed using DESIGN EXPERT 8 software. Briefly, the data were entered into the program as “factor” data as a 2 factor-5 level general factorial design as the nominal data which were then converted to numerical data and replaced by the actual HPLC results. The software then selected a model that predicted the concentration (solubility) of rebaudioside B as a function of the concentration of rebaudioside A and stevioside in the supernatant. The software also calculated a number of statistical factors that indicated the significance of the model parameters.

[3] = system: panelists (descriptive panel); experiment: Descriptive panel: flavor attributes and intensities as a function of rebaudioside B content (Example 6); assay type: in vivo, human; settings: adding about 20%; results from the descriptive panel of tasters
Experimental: A descriptive panel was used to quantify flavor attributes and intensities of varying levels of rebaudioside B added to rebaudioside A (which was 97% pure and contained 0.62% rebaudioside B). […] An 8% sucrose solution as a control. The solutions were prepared in neutral pH water. Other high intensity sweeteners included in the testing were Aspartame at 500 ppm, ASK at 750 ppm, Sucralose at 250 ppm, and Stevia at 500 ppm.
Before conducting the testing the ten panelists were extensively trained in the use of standardized vocabulary to describe the appearance, aroma, flavor, and texture of a wide variety of products in order to rate the samples for sweetness, bitterness, off flavor, chemical or artificial sweetener flavor, anise, and mouth coating. Each such attribute was evaluated on a first and second sip, and on after-taste. The testing began with a session to orient the panelists during which they tasted the samples and discussed the flavor characteristics. They also tasted and discussed references for “sweet”, “bitter”, and “anise”.
During the second and third days of testing, the panelists evaluated the samples for the various attributes and rated them on a scale from none to extreme that encompasses all food ingredient products, not just sweeteners. The products and solutions set forth in Table 19 were used to “anchor” the panelist to the scales.
Eight samples were evaluated per session. A 7 minute rest break was given between each sample and a 15 minute break was given after the first 4 samples had been evaluated. Two evaluations (i.e. replicates) were obtained from each panelist for each product; therefore, a total of 20 judgments were obtained for each product. During data collection, the panelists were instructed to indicate the intensity of each sensory characteristic by placing a vertical slash on 15-cm line scales. The serving order was balanced, with products seen approximately an equal number of times in each possible position. In the waiting room, ambient Alhambra drinking water, unsalted soda crackers, and celery were provided for cleansing the palate between samples.
Slash marks on the line scales were converted to numbers ranging from 1 to 15 by SIMS, the computerized sensory data collection system. Mean intensities were calculated for each sensory characteristic. Analysis of Variance and Duncan's Multiple Range Test, where appropriate, were used to determine significant differences among the samples for each attribute. When panelist-by-product interactions were significant, the mean square of the interaction term, instead of the mean square of the error term, was used in calculation of the product F values.
The flavor attributes were also compared between the samples.

[4] = system: informal testers; experiment: Informal testing of bitterness; assay type: in vivo, human; settings: adding about 20%; as believed by several informal testers
Description: Because the scale used encompasses “the universe”, the magnitude of differences between the 97% rebaudioside A solution and increasing levels of rebaudioside B is not as large as other informal testing determined.

[5] = system: Tate & Lyle employees (taste panel); experiment: Paired comparison test for sweetness and preference, Reb A/Reb B mixture vs 900 ppm 97% rebaudioside A (Example 3); assay type: in vivo, human; settings: 536 ppm Reb A + 310 ppm Reb B vs control 900 ppm Reb A; spring water with phosphoric acid; room temperature; test sample tasted first
Experimental: A taste panel was asked to compare a commercial mixture of rebaudioside A and rebaudioside B and a 900 ppm sample of 97% rebaudioside A. Tate &Lyle employees participated in paired comparison tests for sweetness and preference. Samples were tested at room temperature in two ounce soufflé cups label with random three-digit code& The presentation order was not rotated because of carryover of the off-flavor of rebaudioside A at 900 ppm. The panelist evaluated the test sample first and then the control 900 ppm rebaudioside A sample. The panelists were instructed not to re-taste the samples. Additionally, the panelists were required to wait one minute between testing samples and instructed to clear their palates with a 2% sucrose solution, an unsalted cracker, and bottled water. The panelists were asked to identify the solution that was sweeter and which they like better. The ballot was presented and the data was collected with SIMS sensory software (Sensory Computer Systems, LLC, Morristown, NJ).
The instructions for the paired comparison test were: • (i) It is important that you rinse before and between samples. • (ii) Clear your palate with a bite of cracker. Then rinse with the sugar water. […]

## rebaudioside B
[1]
  sweetness relative to rebaudioside A: one-half to two-thirds
[2]
  solubility: limited

## rebaudioside A
[3]
  reduction of bitterness: about 30%
[2]
  effect of its presence on the solubility of rebaudioside B: increases
[4]
  reduction of bitterness: about 80%

## rebaudioside A [control 900 ppm Reb A]
[5]
  preference (number of panelists preferring the sample): 2
  sweetness (number of panelists choosing the sample as sweeter): 15
